For assay [1] the following is noted: Type: Drug; published clinical trial data; cited from earlier work.
Assay [2] in a line: Published clinical trial data of RA drugs: ACR20/ACR50/ACR70 response, drug vs placebo. It counts as in vivo, human. To be noted: for ACR20 Diff. / ACR50 Diff. / ACR70 Diff.: Type: Diff. (drug minus placebo), * significant difference > 15%; for Highest Significant Clinical Disease Remission Score: highest ACR level with significant difference > 15% over placebo. The source says: In another embodiment, American College of Rheumatoid (ACR) scoring system and DAS28 scoring system are used to determine the extent of improvement in the RA disease symptoms on treatment with a drug.
In another embodiment, the ACR scoring system involves three main scores: ACR20 score pertaining to 20% improvement in the disease, ACR50 score pertaining to 50% improvement in the disease and ACR70 score pertaining to 70% improvement in the disease. Clinically, the calculation of the ACR score is dependent on inputs from a patient Health Assessment Questionnaire (HAQ) and analysis of the percentage improvement in the RA disease phenotypes. […]

Regarding `CN(Cc1cnc2nc(N)nc(N)c2n1)c1ccc(C(=O)N[C@@H](CCC(=O)O)C(=O)O)cc1` [METHOTREXATE], in assay [1], the ACR20 is reported as 46%, the ACR50 is 23% and the ACR70 is reported as 9%. Besides, in assay [2], the “ACR20 Diff.” value is 20%, the “ACR50 Diff.” value is 15* %, the “ACR70 Diff.” value is listed as 5% and the “Highest Significant Clinical Disease Remission Score” value is given as “ACR50 (ACR50 score pertaining to 50% improvement in the disease)”.

Consider `C[C@@H]1CCN(C(=O)CC#N)C[C@@H]1N(C)c1ncnc2[nH]ccc12` [TOFACITINIB], for which, in assay [2], the “ACR20 Diff.” value is given as 66.5%, the “ACR50 Diff.” value is on record as 57.7%, the “ACR70 Diff.” value was 20* % and the “Highest Significant Clinical Disease Remission Score” value is reported as “ACR70 (ACR70 score pertaining to 70% improvement in the disease)”.

Take ANAKINRA: in assay [1], the ACR20 was 38%, the ACR50 is 17% and the ACR70 is listed as 6%. In addition, in assay [2], the “ACR20 Diff.” value is 16* %, the “ACR50 Diff.” value is listed as 9%, the “ACR70 Diff.” value stood at 4% and the “Highest Significant Clinical Disease Remission Score” value is “ACR20 (ACR20 score pertaining to 20% improvement in the disease)”.

With DENOSUMAB, in assay [1], the ACR20 is given as 23%, the ACR50 is 9% and the ACR70 was 1%. For the same molecule, in assay [2], the “ACR20 Diff.” value is listed as less than 0%, the “ACR50 Diff.” value was less than 0%, the “ACR70 Diff.” value was less than 0% and the “Highest Significant Clinical Disease Remission Score” value was “Non”.

For ETANERCEPT, in assay [1], the ACR20 is recorded as 86%, the ACR50 is 71% and the ACR70 was 49%. In assay [2], the “ACR20 Diff.” value stood at 15%, the “ACR50 Diff.” value amounted to 29%, the “ACR70 Diff.” value is 28* % and the “Highest Significant Clinical Disease Remission Score” value was “ACR70 (ACR70 score pertaining to 70% improvement in the disease)”.

As to RITUXIMAB, in assay [1], the ACR20 is 54%, the ACR50 was 34% and the ACR70 is 20%. Besides, in assay [2], the “ACR20 Diff.” value was found to be 26%, the “ACR50 Diff.” value was found to be 21%, the “ACR70 Diff.” value is listed as 15* % and the “Highest Significant Clinical Disease Remission Score” value is “ACR70 (ACR70 score pertaining to 70% improvement in the disease)”.

SECUKINUMAB: in assay [1], the ACR20 is 54%, the ACR50 was 27% and the ACR70 is reported as 12%. Moreover, in assay [2], the “ACR20 Diff.” value is reported as 23* %, the “ACR50 Diff.” value was 12%, the “ACR70 Diff.” value is on record as 0% and the “Highest Significant Clinical Disease Remission Score” value is “ACR20 (ACR20 score pertaining to 20% improvement in the disease)”.

Consider TOCILIZUMAB, for which, in assay [1], the ACR20 was 74%, the ACR50 is listed as 53% and the ACR70 is 37%. Also, in assay [2], the “ACR20 Diff.” value is reported as 33%, the “ACR50 Diff.” value stood at 24%, the “ACR70 Diff.” value is 21* % and the “Highest Significant Clinical Disease Remission Score” value is listed as “ACR70 (ACR70 score pertaining to 70% improvement in the disease)”.

B1: AMG714: RA drug with published clinical trial data, listed among various approved drugs (antibody, chains of the INN, looked up, V domains shown)
VH: EVQLVQSGAEVKKPGESLKISCKVSGYFFTTYWIGWVRQMPGKGLEYMGIIYPGDSDTRYSPSFQGQVTISADKSISTAYLQWSSLKASDTAMYYCARGGNWNCFDYWGQGTLVTVSS
VL: EIVLTQSPGTLSLSPGERATLSCRASQSVSSSYLAWYQQKPGQAPRLLIYGASRRATGIPDRFSGSGSGTDFTLTISRLEPEDFAVYYCQRYGSSHTFGQGTKLEIS
As to B1, in assay [1], the ACR20 is reported as 62%, the ACR50 is given as 0% and the ACR70 is recorded as 0%. In addition, in assay [2], the “ACR20 Diff.” value is given as 36* %, the “ACR50 Diff.” value is 0%, the “ACR70 Diff.” value is listed as 0% and the “Highest Significant Clinical Disease Remission Score” value was “ACR20 (ACR20 score pertaining to 20% improvement in the disease)”.

Values taken from US20150302167A1, “SYSTEM AND METHOD FOR DEVELOPMENT OF THERAPEUTIC SOLUTIONS” (CELLWORKS RESEARCH INDIA PRIVATE LIMITED, priority 2012, published 2015).
